PubChem BioAssay AID248 (DTP/NCI, 2004)
Toxic doses and inconclusive results are not listed. No stated cut-off is given here; in the data, active means T/C of 150% or more; inactive means T/C below 125%. Square brackets hold non-standard residues; d marks the D form. Peptide text beside a SMILES is read from it. * marks the point of attachment. ξ: configuration not given here. Hexanoyl = CCCCCC(=O)*; ξP = O=C(O)C1CCCN1

Tested on: L1210 leukemia ip in BDF1 mice, survival T/C
Test: NCI In Vivo Anticancer Drug Screen. Data for tumor model L1210 Leukemia (intraperitoneal) in B6D2F1 (BDF1) mice
Conditions: endpoint: mean survival time, higher = longer survival
How it was run: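 Tumor was transplanted into mice, which were then dosed with test compound or vehicle alone. Survival was recorded for each group, and the treated figure was expressed relative to the control figure.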

[1] = dose: 100.0 mg/kg/injection, schedule: Q04DX003 (ip), vehicle: Klucel (hydroxypropylcellulose) (HPC)
[2] = dose: 100.0 mg/kg/injection, schedule: Q04DX003 (ip), vehicle: saline with Tween-80
[3] = dose: 200.0 mg/kg/injection, schedule: Q04DX003 (ip), vehicle: Klucel (hydroxypropylcellulose) (HPC)
[4] = dose: 200.0 mg/kg/injection, schedule: Q04DX003 (ip), vehicle: saline with Tween-80
[5] = dose: 400.0 mg/kg/injection, schedule: Q04DX003 (ip), vehicle: Klucel (hydroxypropylcellulose) (HPC)
[6] = dose: 100.0 mg/kg/injection, schedule: Q01DX001 (ip), vehicle: carboxymethylcellulose (CMC)
[7] = dose: 75.0 mg/kg/injection, schedule: Q01DX001 (ip), vehicle: saline
[8] = dose: 50.0 mg/kg/injection, schedule: Q01DX009 (ip), vehicle: Klucel (hydroxypropylcellulose) (HPC)
[9] = dose: 100.0 mg/kg/injection, schedule: Q01DX009 (ip), vehicle: Klucel (hydroxypropylcellulose) (HPC)
[10] = dose: 200.0 mg/kg/injection, schedule: Q01DX009 (ip), vehicle: Klucel (hydroxypropylcellulose) (HPC)
[11] = dose: 400.0 mg/kg/injection, schedule: Q01DX009 (ip), vehicle: Klucel (hydroxypropylcellulose) (HPC)
[12] = dose: 100.0 mg/kg/injection, schedule: Q01DX001 (ip), vehicle: saline

Measured: T/C

CO/N=C1\CC(C)N2C(=O)C(C(C)C)NC(=O)C(NC(=O)c3c4nc5c(C(=O)NC6C(=O)NC(C(C)C)C(=O)N7C(C)CC(O)C7C(=O)N(C)CC(=O)N(C)C(C(C)C)C(=O)OC6C)ccc(C)c5oc-4c(C)c(=O)c3N)C(CO)OC(=O)C(C)N(C)C(=O)CN(C)C(=O)C12 (stereo not drawn)
inactive: dose: 0.1 mg/kg/injection, schedule: Q01DX009 (ip), vehicle: saline + alcohol 96 % of control | dose: 0.2 mg/kg/injection, schedule: Q01DX009 (ip), vehicle: saline + alcohol 102 % of control | dose: 0.3 mg/kg/injection, schedule: Q04DX003 (ip), vehicle: saline + alcohol 96 % of control | dose: 0.4 mg/kg/injection, schedule: Q01DX009 (ip), vehicle: saline + alcohol 97 % of control | dose: 0.6 mg/kg/injection, schedule: Q04DX003 (ip), vehicle: saline + alcohol 107 % of control | dose: 0.8 mg/kg/injection, schedule: Q01DX001 (ip), vehicle: saline + alcohol 97 % of control | dose: 0.8 mg/kg/injection, schedule: Q01DX009 (ip), vehicle: saline + alcohol 111 % of control | dose: 1.2 mg/kg/injection, schedule: Q04DX003 (ip), vehicle: saline + alcohol 97 % of control | dose: 1.6 mg/kg/injection, schedule: Q01DX001 (ip), vehicle: saline + alcohol 103 % of control | dose: 1.6 mg/kg/injection, schedule: Q01DX009 (ip), vehicle: saline + alcohol 100 % of control | dose: 2.4 mg/kg/injection, schedule: Q04DX003 (ip), vehicle: saline + alcohol 112 % of control | dose: 3.2 mg/kg/injection, schedule: Q01DX001 (ip), vehicle: saline + alcohol 110 % of control | dose: 4.8 mg/kg/injection, schedule: Q04DX003 (ip), vehicle: saline + alcohol 110 % of control | dose: 6.4 mg/kg/injection, schedule: Q01DX001 (ip), vehicle: saline + alcohol 106 % of control | dose: 12.8 mg/kg/injection, schedule: Q01DX001 (ip), vehicle: saline + alcohol 101 % of control

CCNCCCNc1ccnc2cc(Cl)ccc12
inactive: dose: 10.0 mg/kg/injection, schedule: Q01DX001 (ip), vehicle: saline 96 % of control | dose: 20.0 mg/kg/injection, schedule: Q01DX001 (ip), vehicle: saline 98 % of control | dose: 40.0 mg/kg/injection, schedule: Q01DX001 (ip), vehicle: saline 93 % of control

O=Cc1cc2c(cc1[N+](=O)[O-])OCO2
inactive: [1] 94 % of control | [2] 101 % of control | [3] 96 % of control | [4] 97 % of control | [5] 92 % of control | dose: 400.0 mg/kg/injection, schedule: Q04DX003 (ip), vehicle: saline with Tween-80 95 % of control

O=C(O)C1C2CC(O)C(C2)C1C(=O)O (stereo not drawn)
inactive: dose: 100.0 mg/kg/injection, schedule: Q01DX001 (ip), vehicle: saline with Tween-80 94 % of control | dose: 100.0 mg/kg/injection, schedule: Q01DX009 (ip), vehicle: saline with Tween-80 93 % of control | dose: 100.0 mg/kg/injection, schedule: Q01DX009 (ip), vehicle: saline 105 % of control | dose: 100.0 mg/kg/injection, schedule: Q04DX003 (ip), vehicle: saline 94 % of control | dose: 200.0 mg/kg/injection, schedule: Q01DX001 (ip), vehicle: saline with Tween-80 98 % of control | dose: 200.0 mg/kg/injection, schedule: Q01DX009 (ip), vehicle: saline with Tween-80 95 % of control | dose: 200.0 mg/kg/injection, schedule: Q01DX009 (ip), vehicle: saline 105 % of control | dose: 200.0 mg/kg/injection, schedule: Q04DX003 (ip), vehicle: saline 96 % of control | dose: 400.0 mg/kg/injection, schedule: Q01DX001 (ip), vehicle: saline with Tween-80 100 % of control | dose: 400.0 mg/kg/injection, schedule: Q01DX009 (ip), vehicle: saline with Tween-80 96 % of control | dose: 400.0 mg/kg/injection, schedule: Q01DX009 (ip), vehicle: saline 98 % of control | dose: 400.0 mg/kg/injection, schedule: Q04DX003 (ip), vehicle: saline 93 % of control

Cc1cc(N(CCCl)CCCl)ccc1C=Nc1cccc(Cl)c1
inactive: dose: 50.0 mg/kg/injection, schedule: Q01DX001 (ip), vehicle: carboxymethylcellulose (CMC) 100 % of control | [6] 107 % of control | dose: 200.0 mg/kg/injection, schedule: Q01DX001 (ip), vehicle: carboxymethylcellulose (CMC) 100 % of control | dose: 400.0 mg/kg/injection, schedule: Q01DX001 (ip), vehicle: carboxymethylcellulose (CMC) 94 % of control

C[N+]1(C2CCC3CCC2C3=O)CCCC1 (stereo not drawn)
inactive: [7] 97 % of control | dose: 150.0 mg/kg/injection, schedule: Q01DX001 (ip), vehicle: saline 97 % of control

CN(CCc1cnc2nc(N)nc(N)c2n1)c1ccc(C(=O)O)cc1
inactive: [7] 115 % of control

COC(=O)c1ccccc1C(=O)O
inactive: [2] 101 % of control | [4] 93 % of control

Cc1nnc([N+](=O)[O-])s1
inactive: dose: 12.5 mg/kg/injection, schedule: Q01DX009 (ip), vehicle: Klucel (hydroxypropylcellulose) (HPC) 107 % of control | dose: 25.0 mg/kg/injection, schedule: Q01DX009 (ip), vehicle: Klucel (hydroxypropylcellulose) (HPC) 112 % of control | [8] 102 % of control

FC(F)(F)c1ccc(C=C2c3ccccc3-c3ccccc32)cc1
inactive: dose: 12.5 mg/kg/injection, schedule: Q04DX002 (ip), vehicle: Klucel (hydroxypropylcellulose) (HPC) 92 % of control | dose: 25.0 mg/kg/injection, schedule: Q04DX002 (ip), vehicle: Klucel (hydroxypropylcellulose) (HPC) 92 % of control | dose: 50.0 mg/kg/injection, schedule: Q04DX002 (ip), vehicle: Klucel (hydroxypropylcellulose) (HPC) 92 % of control

COC(=O)C(=[N+]=[N-])C(=O)OC
inactive: dose: 100.0 mg/kg/injection, schedule: Q01DX001 (ip), vehicle: Klucel (hydroxypropylcellulose) (HPC) 92 % of control | [9] 98 % of control | [1] 102 % of control | dose: 200.0 mg/kg/injection, schedule: Q01DX001 (ip), vehicle: Klucel (hydroxypropylcellulose) (HPC) 92 % of control | [10] 98 % of control | [3] 101 % of control | dose: 400.0 mg/kg/injection, schedule: Q01DX001 (ip), vehicle: Klucel (hydroxypropylcellulose) (HPC) 93 % of control | [11] 107 % of control | [5] 104 % of control

COC(=O)C[N+]1(C)C2CCC1CC(Cl)C2 (stereo not drawn)
inactive: [12] 101 % of control

CN(Nc1c([N+](=O)[O-])cc([N+](=O)[O-])cc1[N+](=O)[O-])c1ccc2ccccc2c1
inactive: [8] 103 % of control | [9] 95 % of control | [1] 95 % of control | [10] 95 % of control | [3] 92 % of control | [11] 98 % of control | [5] 95 % of control

CCC[CH2][Pb]([Cl])([Cl])[CH2]CCC
inactive: dose: 5.0 mg/kg/injection, schedule: Q01DX001 (ip), vehicle: carboxymethylcellulose (CMC) 95 % of control | dose: 20.0 mg/kg/injection, schedule: Q01DX001 (ip), vehicle: carboxymethylcellulose (CMC) 108 % of control | dose: 40.0 mg/kg/injection, schedule: Q01DX001 (ip), vehicle: carboxymethylcellulose (CMC) 97 % of control | [6] 103 % of control

CCCCCC(=O)NCC(=O)N1CCCC1C(=O)O (stereo not drawn) (Hexanoyl-Gly-[ξP]-OH)
inactive: [12] 95 % of control | dose: 200.0 mg/kg/injection, schedule: Q01DX001 (ip), vehicle: saline 107 % of control | dose: 400.0 mg/kg/injection, schedule: Q01DX001 (ip), vehicle: saline 98 % of control

Cc1ccc(CNC(=O)C2CCCCC2C(=O)O)cc1 (stereo not drawn)
inactive: [9] 100 % of control | [10] 96 % of control | [11] 93 % of control
